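Values below derive from 48-hour exposures of cells grown in 96-well plates, with endpoints linearly interpolated between the two concentrations bracketing the appropriate inhibition level. GI50 marks 50% less growth.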 Calls of active or inactive are those of the source. No stated cut-off is given here; in the data, active = GI50 up to about 1.1 µM and inactive = higher.
How the values were obtained:
Assay in all cases: inhibition of tumour cell growth, NCI panel, 48 h
HOP-62 = tested on: HOP-62
HOP-18 = tested on: HOP-18
OVCAR-8 = tested on: OVCAR-8
SR = tested on: SR
A498 = tested on: A498
TK-10 = tested on: TK-10
DLD-1 = tested on: DLD-1
SNB-78 = tested on: SNB-78
SW-620 = tested on: SW-620
XF498 = tested on: XF498
786-0 = tested on: 786-0
SK-MEL-2 = tested on: SK-MEL-2
CCRF-CEM = tested on: CCRF-CEM
NCI-H460 = tested on: NCI-H460
DMS-114 = tested on: DMS-114
SNB-19 = tested on: SNB-19
MCF7 = tested on: MCF7
MDA-N = tested on: MDA-N
BT-549 = tested on: BT-549
MDA-MB-435 = tested on: MDA-MB-435

| Structure (SMILES) | GI50 (HOP-62) | GI50 (HOP-18) | GI50 (OVCAR-8) | GI50 (SR) | GI50 (A498) | GI50 (TK-10) | GI50 (DLD-1) | GI50 (SNB-78) | GI50 (SW-620) | GI50 (XF498) | GI50 (786-0) | GI50 (SK-MEL-2) | GI50 (CCRF-CEM) | GI50 (NCI-H460) | GI50 (DMS-114) | GI50 (SNB-19) | GI50 (MCF7) | GI50 (MDA-N) | GI50 (BT-549) | GI50 (MDA-MB-435) |
| --- | --- | --- | --- | --- | --- | --- | --- | --- | --- | --- | --- | --- | --- | --- | --- | --- | --- | --- | --- | --- |
| O=C(Cc1ccccc1)N/N=C(/c1nc2ccc([N+](=O)[O-])cc2nc1O)C(O)c1ccccc1Cl (stereo not drawn) | > 100 µM (inactive) | > 100 µM (inactive) | > 100 µM (inactive) | > 100 µM (inactive) | > 100 µM (inactive) | > 100 µM (inactive) | > 100 µM (inactive) | > 100 µM (inactive) | 89.9 µM (inactive) | > 100 µM (inactive) | > 100 µM (inactive) | > 100 µM (inactive) | > 100 µM (inactive) | > 100 µM (inactive) | – | – | – | – | – | – |
| CCOC(=O)CCC1(C(=O)OCC)CCCCC1=O (stereo not drawn) | > 100 µM (inactive) | 81.8 µM (inactive) | > 100 µM (inactive) | – | > 100 µM (inactive) | > 100 µM (inactive) | > 100 µM (inactive) | > 100 µM (inactive) | > 100 µM (inactive) | > 100 µM (inactive) | > 100 µM (inactive) | > 100 µM (inactive) | > 100 µM (inactive) | > 100 µM (inactive) | > 100 µM (inactive) | > 100 µM (inactive) | – | – | – | – |
| CCOC(=O)Cc1cc(OC)c(OC)cc1/C(Cl)=C(\CO)c1ccc(OC)c(OC)c1 | – | > 100 µM (inactive) | > 100 µM (inactive) | – | – | > 100 µM (inactive) | > 100 µM (inactive) | 59 µM (inactive) | > 100 µM (inactive) | 16.9 µM (inactive) | – | – | > 100 µM (inactive) | > 100 µM (inactive) | 66.5 µM (inactive) | 50.2 µM (inactive) | – | – | – | – |
| NC(=O)OCC(COc1ccc(Cl)cc1)OC(=O)c1cc([N+](=O)[O-])cc([N+](=O)[O-])c1 (stereo not drawn) | > 100 µM (inactive) | > 100 µM (inactive) | > 100 µM (inactive) | > 100 µM (inactive) | > 100 µM (inactive) | > 100 µM (inactive) | 55.2 µM (inactive) | > 100 µM (inactive) | 13.2 µM (inactive) | 58.2 µM (inactive) | 41.6 µM (inactive) | 71.6 µM (inactive) | 97.3 µM (inactive) | 40.6 µM (inactive) | 35.1 µM (inactive) | > 100 µM (inactive) | – | – | – | – |
| O=C(Nc1ccc(Cl)c(Cl)c1)C(=O)C(C(=O)c1ccccc1F)C1OC(=O)c2ccccc21 (stereo not drawn) | 23.4 µM (inactive) | – | 15.2 µM (inactive) | 10.4 µM (inactive) | 37.8 µM (inactive) | 38.8 µM (inactive) | 26.4 µM (inactive) | 11.2 µM (inactive) | 23.9 µM (inactive) | 31.8 µM (inactive) | – | 12.3 µM (inactive) | 13.8 µM (inactive) | 18.6 µM (inactive) | 18.7 µM (inactive) | 17.5 µM (inactive) | – | – | – | – |
| CC1CC(c2ccccc2)=Nc2ccccc2S1 (stereo not drawn) | > 100 µM (inactive) | – | > 100 µM (inactive) | > 100 µM (inactive) | > 100 µM (inactive) | > 100 µM (inactive) | > 100 µM (inactive) | > 100 µM (inactive) | > 100 µM (inactive) | > 100 µM (inactive) | – | > 100 µM (inactive) | 34.7 µM (inactive) | > 100 µM (inactive) | > 100 µM (inactive) | > 100 µM (inactive) | – | – | – | – |
| COc1ccc2c(c1)OC(c1ccccc1O)CC2=O (stereo not drawn) | 41.4 µM (inactive) | 5.64 µM (inactive) | 47.6 µM (inactive) | – | 53.1 µM (inactive) | > 100 µM (inactive) | 29 µM (inactive) | 26.5 µM (inactive) | 40.6 µM (inactive) | 40.7 µM (inactive) | 40.5 µM (inactive) | 26.6 µM (inactive) | 30.5 µM (inactive) | 50.1 µM (inactive) | – | > 100 µM (inactive) | – | – | – | – |
| COc1cc(C(C)c2cc3c(cc2OCCOCCOc2cc4c(cc2C(C)c2cc(OC)c(OC)c(OC)c2)OCO4)OCO3)cc(OC)c1OC (stereo not drawn) | > 10 µM (inactive) | > 10 µM (inactive) | > 10 µM (inactive) | > 10 µM (inactive) | > 10 µM (inactive) | > 10 µM (inactive) | > 10 µM (inactive) | > 10 µM (inactive) | > 10 µM (inactive) | > 10 µM (inactive) | > 10 µM (inactive) | > 10 µM (inactive) | > 10 µM (inactive) | > 10 µM (inactive) | > 10 µM (inactive) | > 10 µM (inactive) | – | – | – | – |
| COC1=CC(=O)[C@@]2(C)C(C)[C@H](c3ccccc3)[C@H]2C1=O (stereo partly drawn) | > 100 µM (inactive) | – | > 100 µM (inactive) | > 100 µM (inactive) | > 100 µM (inactive) | > 100 µM (inactive) | > 100 µM (inactive) | > 10 µM (inactive) | > 100 µM (inactive) | > 100 µM (inactive) | > 100 µM (inactive) | > 100 µM (inactive) | > 100 µM (inactive) | > 100 µM (inactive) | – | > 100 µM (inactive) | – | – | – | – |
| S=C=NCCc1ccccc1 [PHENETHYLISOTHIOCYANATE] | 0.371 µM (active) | – | 1.33 µM (inactive) | 0.351 µM (active) | 0.431 µM (active) | 0.813 µM (active) | 0.0596 µM (active) | 0.818 µM (active) | 0.31 µM (active) | 2.39 µM (inactive) | 0.188 µM (active) | 0.402 µM (active) | 0.186 µM (active) | 0.0973 µM (active) | 0.382 µM (active) | 1.73 µM (inactive) | – | – | – | – |
| O=C(NC(Cc1ccc(Cl)cc1)C(=O)O)c1ccc(I)cc1 (stereo not drawn) | > 100 µM (inactive) | > 100 µM (inactive) | > 100 µM (inactive) | – | > 100 µM (inactive) | – | > 100 µM (inactive) | > 100 µM (inactive) | > 100 µM (inactive) | > 64.4 µM (inactive) | – | > 100 µM (inactive) | > 100 µM (inactive) | > 100 µM (inactive) | – | > 100 µM (inactive) | > 67 µM (inactive) | – | – | – |
| COc1ccc(NC(=O)C(=O)NNC(=O)c2sc(NNC(C)=O)nc2C)c([N+](=O)[O-])c1 | > 100 µM (inactive) | – | > 100 µM (inactive) | 45.3 µM (inactive) | 33.3 µM (inactive) | > 100 µM (inactive) | – | > 100 µM (inactive) | 35.6 µM (inactive) | 71.3 µM (inactive) | > 100 µM (inactive) | > 100 µM (inactive) | 24.2 µM (inactive) | > 100 µM (inactive) | > 100 µM (inactive) | > 100 µM (inactive) | – | – | – | – |
| C=CCNC(=O)N(CCC)CCCC(NC(C)=O)C(=O)NCc1ccccc1 (stereo not drawn) | > 100 µM (inactive) | 16.3 µM (inactive) | > 100 µM (inactive) | – | > 100 µM (inactive) | > 100 µM (inactive) | – | – | > 100 µM (inactive) | > 100 µM (inactive) | > 100 µM (inactive) | > 100 µM (inactive) | > 100 µM (inactive) | > 100 µM (inactive) | > 100 µM (inactive) | > 100 µM (inactive) | – | – | – | – |
| COc1cc(C2c3cc4c(cc3[C@@H](Nc3cccc(CO)c3)C3COC(=O)[C@H]23)OCO4)cc(OC)c1O (stereo partly drawn) | 0.156 µM (active) | 1.1 µM (active) | 1.33 µM (inactive) | – | 0.293 µM (active) | – | 1.43 µM (inactive) | – | 1.41 µM (inactive) | 0.154 µM (active) | – | 2.74 µM (inactive) | 0.078 µM (active) | < 0.01 µM (active) | 0.427 µM (active) | 0.453 µM (active) | 0.22 µM (active) | – | – | – |
| Cc1cc(C)nc(NS(=O)(=O)c2ccc(NC(=O)c3cccc4c(Nc5ccc(S(=O)(=O)Nc6cc(C)on6)cc5)c5ccccc5nc34)cc2)n1 | 19.1 µM (inactive) | – | – | 27.2 µM (inactive) | 23.8 µM (inactive) | 34.4 µM (inactive) | 30.1 µM (inactive) | 41.7 µM (inactive) | – | 21.1 µM (inactive) | – | 19.5 µM (inactive) | 28.8 µM (inactive) | 25.6 µM (inactive) | 20.7 µM (inactive) | 15.7 µM (inactive) | – | – | – | – |
| COc1nc(N=P(c2ccccc2)(c2ccccc2)c2ccccc2)cc(=O)n1C | > 100 µM (inactive) | – | > 100 µM (inactive) | 0.0233 µM (active) | > 100 µM (inactive) | > 100 µM (inactive) | – | – | > 100 µM (inactive) | – | > 100 µM (inactive) | > 100 µM (inactive) | > 100 µM (inactive) | > 100 µM (inactive) | – | > 100 µM (inactive) | > 100 µM (inactive) | > 100 µM (inactive) | > 100 µM (inactive) | > 100 µM (inactive) |
| CCN(CC)CCO[Si](OCCN(CC)CC)(OCCN(CC)CC)OCCN(CC)CC | – | – | > 100 µM (inactive) | > 100 µM (inactive) | – | > 100 µM (inactive) | > 100 µM (inactive) | – | > 100 µM (inactive) | > 100 µM (inactive) | – | > 100 µM (inactive) | – | > 100 µM (inactive) | > 100 µM (inactive) | > 100 µM (inactive) | – | – | – | – |
| CC1(Br)S(=O)(=O)OCCOS1(=O)=O | > 100 µM (inactive) | – | > 100 µM (inactive) | > 100 µM (inactive) | > 100 µM (inactive) | > 100 µM (inactive) | > 100 µM (inactive) | > 100 µM (inactive) | > 100 µM (inactive) | > 100 µM (inactive) | > 100 µM (inactive) | > 100 µM (inactive) | > 100 µM (inactive) | > 100 µM (inactive) | > 100 µM (inactive) | > 100 µM (inactive) | – | – | – | – |
| CCCCCCCc1cscc1-c1cscc1Br | 57.4 µM (inactive) | – | 52 µM (inactive) | 19.6 µM (inactive) | 86.7 µM (inactive) | > 100 µM (inactive) | – | – | 42.8 µM (inactive) | – | 57 µM (inactive) | 16.6 µM (inactive) | 18.2 µM (inactive) | 39.4 µM (inactive) | – | 70.1 µM (inactive) | 34.8 µM (inactive) | 35.8 µM (inactive) | > 100 µM (inactive) | 35.9 µM (inactive) |

— ChEMBL document CHEMBL1201862, “PubChem BioAssay data set” (2004)
